Values of other authors in patent publication US7049120B2, “Regulation of human mrp5-like protein” (Bayer HealthCare AG, priority 2001, dated 2006).

What was measured:
MRP5 [1] = biological target: T1, MRP5 (Homo sapiens, UniProt O15440); design: host or cells: V79 hamster lung fibroblasts, stably expressing; conditions: MRP5 stably expressed in V79 hamster lung fibroblasts; Jedlitschsky et al., 2000
MRP5 [2] = biological target: T1, MRP5; design: host or cells: polarized Madin-Darby canine kidney II (MDCK II) cells, transfected; conditions: polarized MDCK II cells overexpressing human MRP5; Wijnholds et al., 2000
MRP5 [3] = biological target: T1, MRP5; design: host or cells: polarized Madin-Darby canine kidney II (MDCK II) cells, transfected; conditions: MDCK II cells transfected with human MRP5; Wijnholds et al., 2000

T1 sequence (O15440 whole entry): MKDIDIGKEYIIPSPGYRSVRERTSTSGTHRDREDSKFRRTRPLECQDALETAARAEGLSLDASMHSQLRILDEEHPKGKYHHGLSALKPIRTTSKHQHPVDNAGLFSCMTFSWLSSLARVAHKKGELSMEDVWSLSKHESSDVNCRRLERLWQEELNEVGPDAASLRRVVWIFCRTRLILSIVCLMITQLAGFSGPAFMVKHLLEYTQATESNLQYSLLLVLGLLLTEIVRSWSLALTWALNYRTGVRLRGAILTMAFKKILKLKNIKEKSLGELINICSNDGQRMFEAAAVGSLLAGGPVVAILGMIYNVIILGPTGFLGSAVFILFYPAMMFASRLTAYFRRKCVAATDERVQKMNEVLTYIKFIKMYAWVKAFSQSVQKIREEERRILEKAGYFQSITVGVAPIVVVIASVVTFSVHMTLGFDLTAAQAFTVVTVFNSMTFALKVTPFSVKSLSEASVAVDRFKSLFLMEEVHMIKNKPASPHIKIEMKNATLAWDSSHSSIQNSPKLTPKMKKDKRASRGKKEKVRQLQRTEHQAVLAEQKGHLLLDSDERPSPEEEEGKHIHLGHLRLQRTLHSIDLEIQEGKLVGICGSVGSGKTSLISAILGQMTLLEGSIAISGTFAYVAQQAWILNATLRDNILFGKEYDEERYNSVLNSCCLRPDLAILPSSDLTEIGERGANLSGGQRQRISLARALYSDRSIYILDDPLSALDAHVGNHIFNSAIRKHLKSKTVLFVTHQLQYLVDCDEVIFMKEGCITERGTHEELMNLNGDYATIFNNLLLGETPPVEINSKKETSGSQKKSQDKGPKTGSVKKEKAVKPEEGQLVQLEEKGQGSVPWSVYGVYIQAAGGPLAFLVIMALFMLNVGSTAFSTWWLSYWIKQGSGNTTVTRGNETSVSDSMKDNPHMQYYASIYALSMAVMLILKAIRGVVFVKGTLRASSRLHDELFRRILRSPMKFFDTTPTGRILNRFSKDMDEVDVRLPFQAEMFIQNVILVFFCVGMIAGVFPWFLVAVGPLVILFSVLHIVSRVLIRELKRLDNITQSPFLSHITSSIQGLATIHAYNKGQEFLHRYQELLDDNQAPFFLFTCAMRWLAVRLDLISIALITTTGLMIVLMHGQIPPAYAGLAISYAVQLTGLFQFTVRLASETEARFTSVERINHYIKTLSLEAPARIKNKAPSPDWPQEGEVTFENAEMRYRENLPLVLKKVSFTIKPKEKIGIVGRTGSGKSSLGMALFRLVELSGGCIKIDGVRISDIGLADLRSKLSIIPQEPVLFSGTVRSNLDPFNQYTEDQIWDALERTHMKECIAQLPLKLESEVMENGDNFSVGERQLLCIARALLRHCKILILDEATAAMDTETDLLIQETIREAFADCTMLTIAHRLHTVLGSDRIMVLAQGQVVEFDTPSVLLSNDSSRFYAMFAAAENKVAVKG

SMILES	inhibition of MRP5-mediated transport of cyclic nucleotides such as cGMP (MRP5 [1])	resistance of MRP5-overexpressing cells to the drug (MRP5 [2])	further results
CCCc1nn(C)c2c(=O)[nH]c(-c3cc(S(=O)(=O)N4CCN(C)CC4)ccc3OCC)nc12 [Sildenafil]	inhibited		
Nc1nc2nc[nH]c2c(=S)[nH]1 [thioguanine]		resistant	
Nc1ncnc2c1ncn2CCOCP(=O)(O)O [PMEA, 9-(2-phosphonylmethoxyethyl)-adenine]			transport of the drug by MRP5-transfected cells (MRP5 [3]): transport
CCCOc1ccccc1-c1nc2nn[nH]c2c(=O)[nH]1 [Zaprinast]	inhibited		

Second part, led by results:

inhibition of MRP5-mediated transport of cyclic nucleotides such as cGMP (MRP5 [1])	resistance of MRP5-overexpressing cells to the drug (MRP5 [2])	SMILES	further results
	resistant	Sc1ncnc2nc[nH]c12 [6-mercaptopurine]	
inhibited		COc1cc2c(cc1OC)-c1c/c(=N\c3c(C)cc(C)cc3C)n(C)c(=O)n1CC2 [Trequinsin]	
